Legend:
[1] = molecular target: T1, Estrogen receptor alpha (ERalpha) (Homo sapiens, UniProt P03372); experiment: Displacement of [3H]E2 from human recombinant ERalpha assessed as receptor binding at 3 uM after 16 to 20 hrs by liquid scintillation counting method relative to control; conditions: probe [3H]E2, read-out: Activity
T1 sequence (P03372 whole entry): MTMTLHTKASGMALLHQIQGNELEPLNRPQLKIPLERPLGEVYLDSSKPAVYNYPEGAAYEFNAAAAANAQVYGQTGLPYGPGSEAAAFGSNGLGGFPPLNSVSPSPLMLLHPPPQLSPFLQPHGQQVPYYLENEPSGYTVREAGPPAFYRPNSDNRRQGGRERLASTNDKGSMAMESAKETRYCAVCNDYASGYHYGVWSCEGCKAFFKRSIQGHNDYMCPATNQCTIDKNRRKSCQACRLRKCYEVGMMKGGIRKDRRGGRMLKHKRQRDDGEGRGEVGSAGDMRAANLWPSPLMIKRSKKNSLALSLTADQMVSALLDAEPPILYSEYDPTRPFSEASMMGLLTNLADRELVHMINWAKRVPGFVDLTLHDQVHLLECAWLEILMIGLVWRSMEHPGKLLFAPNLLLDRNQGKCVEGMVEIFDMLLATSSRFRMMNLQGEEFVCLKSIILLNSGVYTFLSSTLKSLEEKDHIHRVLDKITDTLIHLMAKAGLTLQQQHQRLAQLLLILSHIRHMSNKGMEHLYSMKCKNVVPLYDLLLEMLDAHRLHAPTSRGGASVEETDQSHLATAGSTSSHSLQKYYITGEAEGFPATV

[2] = molecular target: Estrogen receptor beta (ERbeta) (Homo sapiens, UniProt Q92731); experiment: Displacement of [3H]E2 from human recombinant ERbeta assessed as receptor binding at 10 uM after 16 to 20 hrs by liquid scintillation counting method relative to control; conditions: probe [3H]E2, read-out: Activity
Chain of Estrogen receptor beta (ERbeta) (Q92731 whole entry): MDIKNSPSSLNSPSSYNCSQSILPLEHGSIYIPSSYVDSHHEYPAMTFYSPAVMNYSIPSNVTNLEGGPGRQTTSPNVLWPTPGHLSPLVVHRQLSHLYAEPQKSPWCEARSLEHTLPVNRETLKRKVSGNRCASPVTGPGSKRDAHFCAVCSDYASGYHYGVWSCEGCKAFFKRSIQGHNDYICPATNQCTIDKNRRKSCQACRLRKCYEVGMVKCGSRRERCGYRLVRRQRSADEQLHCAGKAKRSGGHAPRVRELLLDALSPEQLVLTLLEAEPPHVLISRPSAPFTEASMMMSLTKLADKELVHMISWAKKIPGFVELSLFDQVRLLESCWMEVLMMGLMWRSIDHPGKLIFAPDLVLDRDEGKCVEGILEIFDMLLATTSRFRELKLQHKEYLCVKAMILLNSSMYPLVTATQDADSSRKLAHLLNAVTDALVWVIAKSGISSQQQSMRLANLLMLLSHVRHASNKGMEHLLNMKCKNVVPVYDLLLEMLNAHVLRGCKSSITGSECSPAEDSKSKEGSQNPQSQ

[3] = molecular target: T2, 17-beta-hydroxysteroid dehydrogenase type 1 (Homo sapiens, UniProt P14061); experiment: Inhibition of human placental cytosolic 17beta-HSD1 assessed as reduction in activation of [2,4,6,7-3H]-E1 substrate to E2 after 10 mins in presence of NADH by RP-HPLC method
T2 sequence (P14061 whole entry): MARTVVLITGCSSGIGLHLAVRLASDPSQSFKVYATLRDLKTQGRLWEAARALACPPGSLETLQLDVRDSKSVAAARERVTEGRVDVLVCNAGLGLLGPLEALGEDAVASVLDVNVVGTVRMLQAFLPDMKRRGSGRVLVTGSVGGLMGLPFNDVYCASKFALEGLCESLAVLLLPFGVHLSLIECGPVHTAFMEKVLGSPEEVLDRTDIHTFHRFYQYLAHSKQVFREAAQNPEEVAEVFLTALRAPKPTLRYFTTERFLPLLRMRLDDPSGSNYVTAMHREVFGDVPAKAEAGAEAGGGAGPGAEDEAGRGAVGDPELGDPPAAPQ

[4] = molecular target: T3, 17-beta-hydroxysteroid dehydrogenase type 2 (Homo sapiens, UniProt P37059); experiment: Inhibition of human placental microsomal 17beta-HSD2 using [2,4,6,7-3H]-E2 as substrate after 20 mins in presence of NAD+ by RP-HPLC method
T3 sequence (P37059 whole entry): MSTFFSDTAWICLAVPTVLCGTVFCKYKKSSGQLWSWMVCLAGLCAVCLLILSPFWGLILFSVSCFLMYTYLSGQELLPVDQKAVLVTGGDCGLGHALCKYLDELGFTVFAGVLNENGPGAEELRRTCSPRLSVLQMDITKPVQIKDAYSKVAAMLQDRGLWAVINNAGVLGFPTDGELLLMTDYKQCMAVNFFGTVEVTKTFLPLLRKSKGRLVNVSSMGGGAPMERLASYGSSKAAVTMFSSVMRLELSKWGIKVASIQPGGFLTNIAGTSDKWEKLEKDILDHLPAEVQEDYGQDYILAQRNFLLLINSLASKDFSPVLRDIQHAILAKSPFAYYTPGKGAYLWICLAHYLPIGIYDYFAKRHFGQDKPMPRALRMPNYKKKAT

HEK293 = experiment: Cytotoxicity against HEK293 cells assessed as reduction in cell viability up to 5.6 uM after 66 hrs by MTT assay; assay type: cell-based; conditions: human, hek293, 66 h
CYP2B6 = molecular target: T4, CYP2B6 (Homo sapiens, UniProt P20813); experiment: Inhibition of recombinant human CYP2B6 expressed in baculovirus infected insect cell microsomes at 1 uM relative to control; assay type: ADME
T4 sequence (P20813 whole entry): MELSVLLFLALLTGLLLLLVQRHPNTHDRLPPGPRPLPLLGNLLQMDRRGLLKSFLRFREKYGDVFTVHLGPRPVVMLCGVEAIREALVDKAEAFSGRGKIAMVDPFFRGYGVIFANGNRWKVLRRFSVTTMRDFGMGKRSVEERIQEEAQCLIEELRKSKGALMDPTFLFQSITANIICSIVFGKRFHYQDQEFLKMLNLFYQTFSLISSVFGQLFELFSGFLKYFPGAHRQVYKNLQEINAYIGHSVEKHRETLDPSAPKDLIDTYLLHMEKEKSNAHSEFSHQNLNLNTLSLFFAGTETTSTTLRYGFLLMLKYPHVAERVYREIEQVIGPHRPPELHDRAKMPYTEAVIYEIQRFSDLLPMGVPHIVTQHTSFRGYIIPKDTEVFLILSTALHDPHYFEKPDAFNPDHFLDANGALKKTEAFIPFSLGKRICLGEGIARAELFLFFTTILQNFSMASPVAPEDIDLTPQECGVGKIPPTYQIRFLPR

Plasma [5] = experiment: Plasma concentration in Sprague-Dawley rat at 150 umol/kg, sc qd for 4 consecutive days measured on day 8 post dose by HPLC-MS analysis; assay type: ADME, organism-based; conditions: in vivo
[6] = Selectivity index, ratio of IC20 for HEK293 cells to IC50 for human placental cytosolic 17beta-HSD1
Salmonella typhimurium [7] = experiment: Mutagenicity in Salmonella typhimurium TA98 up to 100 uM in presence of rat liver S9 fraction by Ames 2 assay; assay type: toxicity; conditions: salmonella enterica subsp. enterica serovar typhimurium
CYP3A4 = CYP3A4 (Homo sapiens, UniProt P08684); experiment: Inhibition of recombinant human CYP3A4 expressed in baculovirus infected insect cell microsomes at 1 uM relative to control; assay type: ADME
Chain of CYP3A4 (P08684 whole entry): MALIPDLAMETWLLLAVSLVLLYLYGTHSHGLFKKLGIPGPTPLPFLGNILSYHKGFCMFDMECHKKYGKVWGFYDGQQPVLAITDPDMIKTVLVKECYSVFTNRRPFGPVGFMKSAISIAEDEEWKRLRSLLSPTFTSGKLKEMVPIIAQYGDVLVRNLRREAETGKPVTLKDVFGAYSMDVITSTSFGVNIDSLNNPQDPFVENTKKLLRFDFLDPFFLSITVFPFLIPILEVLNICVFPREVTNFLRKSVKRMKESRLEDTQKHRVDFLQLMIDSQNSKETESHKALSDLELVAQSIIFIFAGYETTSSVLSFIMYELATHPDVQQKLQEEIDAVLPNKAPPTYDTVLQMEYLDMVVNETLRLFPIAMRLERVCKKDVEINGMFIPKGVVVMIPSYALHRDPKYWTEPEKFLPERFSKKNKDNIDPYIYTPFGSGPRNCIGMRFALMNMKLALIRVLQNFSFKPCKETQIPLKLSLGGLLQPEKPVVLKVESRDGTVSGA

Plasma [8] = experiment: Plasma concentration in Sprague-Dawley rat at 150 umol/kg, sc qd for 4 consecutive days measured on day 2 post dose by HPLC-MS analysis; assay type: ADME, organism-based; conditions: in vivo
CYP2D6 = CYP2D6 (Homo sapiens, UniProt P10635); experiment: Inhibition of recombinant human CYP2D6 expressed in baculovirus infected insect cell microsomes at 1 uM relative to control; assay type: ADME
Chain of CYP2D6 (P10635 whole entry): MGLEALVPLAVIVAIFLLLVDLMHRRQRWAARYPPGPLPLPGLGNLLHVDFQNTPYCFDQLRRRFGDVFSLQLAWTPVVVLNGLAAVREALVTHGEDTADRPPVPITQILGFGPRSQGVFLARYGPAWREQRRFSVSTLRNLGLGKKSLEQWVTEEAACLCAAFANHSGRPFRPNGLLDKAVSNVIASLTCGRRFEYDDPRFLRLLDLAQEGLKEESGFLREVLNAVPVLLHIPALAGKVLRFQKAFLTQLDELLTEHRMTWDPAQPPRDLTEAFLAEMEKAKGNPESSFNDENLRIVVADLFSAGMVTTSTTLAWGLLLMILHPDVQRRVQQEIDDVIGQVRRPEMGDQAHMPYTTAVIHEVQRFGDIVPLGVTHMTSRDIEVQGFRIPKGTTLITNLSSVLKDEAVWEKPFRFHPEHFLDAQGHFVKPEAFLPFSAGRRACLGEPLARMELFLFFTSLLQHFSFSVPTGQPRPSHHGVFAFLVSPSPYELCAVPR

PXR (NR1I2) = molecular target: T5, PXR (NR1I2) (Homo sapiens, UniProt O75469); experiment: Agonist activity at recombinant human PXR at 3.16 uM by co-factor recruitment assay relative to control; assay type: ADME; conditions: read-out: Activity
T5 sequence (O75469 whole entry): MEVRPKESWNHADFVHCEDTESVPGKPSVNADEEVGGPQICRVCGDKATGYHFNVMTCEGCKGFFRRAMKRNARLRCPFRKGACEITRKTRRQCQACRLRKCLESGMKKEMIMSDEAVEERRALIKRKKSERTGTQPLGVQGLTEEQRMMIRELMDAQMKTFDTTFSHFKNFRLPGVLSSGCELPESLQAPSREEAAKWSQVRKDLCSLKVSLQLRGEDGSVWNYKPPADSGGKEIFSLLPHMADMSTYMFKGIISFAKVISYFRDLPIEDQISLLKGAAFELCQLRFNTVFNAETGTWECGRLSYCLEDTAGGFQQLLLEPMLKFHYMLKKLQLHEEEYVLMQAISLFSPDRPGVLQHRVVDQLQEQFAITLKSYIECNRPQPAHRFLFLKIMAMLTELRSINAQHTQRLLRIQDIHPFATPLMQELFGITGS

Salmonella typhimurium [9] = experiment: Mutagenicity in Salmonella typhimurium TA98 up to 100 uM by Ames 2 assay; assay type: toxicity; conditions: salmonella enterica subsp. enterica serovar typhimurium
CYP1A2 = molecular target: T6, CYP1A2 (Homo sapiens, UniProt P05177); experiment: Inhibition of recombinant human CYP1A2 expressed in baculovirus infected insect cell microsomes at 1 uM relative to control; assay type: ADME
T6 sequence (P05177 whole entry): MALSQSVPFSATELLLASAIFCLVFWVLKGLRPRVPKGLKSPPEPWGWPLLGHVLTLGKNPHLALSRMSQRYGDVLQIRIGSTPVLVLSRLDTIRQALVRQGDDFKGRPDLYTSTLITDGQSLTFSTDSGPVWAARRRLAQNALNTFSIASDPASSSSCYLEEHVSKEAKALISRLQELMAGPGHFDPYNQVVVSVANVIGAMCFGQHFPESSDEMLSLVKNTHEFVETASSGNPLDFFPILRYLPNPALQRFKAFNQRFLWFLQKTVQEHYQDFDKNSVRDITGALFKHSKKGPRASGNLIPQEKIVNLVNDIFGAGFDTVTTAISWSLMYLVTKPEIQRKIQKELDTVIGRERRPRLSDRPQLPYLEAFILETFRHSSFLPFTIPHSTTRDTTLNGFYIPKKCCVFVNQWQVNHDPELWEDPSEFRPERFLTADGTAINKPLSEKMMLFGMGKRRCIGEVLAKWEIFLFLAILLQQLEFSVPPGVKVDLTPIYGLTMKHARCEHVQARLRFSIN

CYP2C19 = CYP2C19 (Homo sapiens, UniProt P33261); experiment: Inhibition of recombinant human CYP2C19 expressed in baculovirus infected insect cell microsomes at 1 uM relative to control; assay type: ADME
Chain of CYP2C19 (P33261 whole entry): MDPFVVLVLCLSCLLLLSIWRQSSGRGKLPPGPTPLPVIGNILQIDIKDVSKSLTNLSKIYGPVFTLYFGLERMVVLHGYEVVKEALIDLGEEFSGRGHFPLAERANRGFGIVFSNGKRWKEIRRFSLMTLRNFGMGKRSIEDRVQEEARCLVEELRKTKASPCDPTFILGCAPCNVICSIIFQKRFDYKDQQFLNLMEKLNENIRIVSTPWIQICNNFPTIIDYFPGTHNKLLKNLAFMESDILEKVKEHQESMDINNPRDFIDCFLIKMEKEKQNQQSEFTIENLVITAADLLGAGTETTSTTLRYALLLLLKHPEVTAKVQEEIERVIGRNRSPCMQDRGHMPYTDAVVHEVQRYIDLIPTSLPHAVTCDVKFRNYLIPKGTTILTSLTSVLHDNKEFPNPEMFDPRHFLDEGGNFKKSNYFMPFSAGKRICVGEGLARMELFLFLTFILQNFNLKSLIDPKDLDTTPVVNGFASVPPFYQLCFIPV

Plasma [10] = experiment: Plasma concentration in Sprague-Dawley rat at 150 umol/kg, sc qd for 4 consecutive days measured on day 4 post dose by HPLC-MS analysis; assay type: ADME, organism-based; conditions: in vivo
Salmonella typhimurium [11] = experiment: Mutagenicity in Salmonella typhimurium TA7001/7002/7003/7004/7005/7006 up to 100 uM by Ames 2 assay; assay type: toxicity; conditions: salmonella enterica subsp. enterica serovar typhimurium
Salmonella typhimurium [12] = experiment: Mutagenicity in Salmonella typhimurium TA7001/7002/7003/7004/7005/7006 up to 100 uM in presence of rat liver S9 fraction by Ames 2 assay; assay type: toxicity; conditions: salmonella enterica subsp. enterica serovar typhimurium
CYP2C9 = CYP2C9 (Homo sapiens, UniProt P11712); experiment: Inhibition of recombinant human CYP2C9 expressed in baculovirus infected insect cell microsomes at 1 uM relative to control; assay type: ADME
Chain of CYP2C9 (P11712 whole entry): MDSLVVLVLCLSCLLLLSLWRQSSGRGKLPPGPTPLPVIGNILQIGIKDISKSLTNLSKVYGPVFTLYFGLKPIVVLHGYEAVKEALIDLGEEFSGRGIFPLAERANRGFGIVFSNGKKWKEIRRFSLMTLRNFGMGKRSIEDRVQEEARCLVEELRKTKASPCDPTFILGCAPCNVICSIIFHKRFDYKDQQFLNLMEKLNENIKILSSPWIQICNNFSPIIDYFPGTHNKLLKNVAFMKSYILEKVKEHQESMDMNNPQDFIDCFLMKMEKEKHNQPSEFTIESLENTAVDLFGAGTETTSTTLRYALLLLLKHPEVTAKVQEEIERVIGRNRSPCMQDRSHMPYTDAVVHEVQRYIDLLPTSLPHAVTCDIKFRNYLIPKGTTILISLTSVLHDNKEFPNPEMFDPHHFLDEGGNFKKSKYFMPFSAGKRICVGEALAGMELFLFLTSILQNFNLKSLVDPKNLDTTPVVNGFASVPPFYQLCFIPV

Structure (SMILES)	activity at 3 µM [1]	activity at 10 µM [2]	IC50 [3]	IC50 [4]	further results
O=C(c1ccc(-c2ccc(O)c(Cl)c2)s1)c1c(F)ccc(O)c1F	73%	55%	–	–	–
NS(=O)(=O)c1cccc(-c2ccc(C(=O)c3c(F)ccc(O)c3F)s2)c1	–	–	55 nM	86 nM	–
O=C(c1ccc(-c2ccc(O)cc2)s1)c1c(F)ccc(O)c1F	–	–	3 nM	71 nM	–
O=C(c1ccc(-c2ccc(F)cc2F)s1)c1cccc(O)c1F	–	–	47 nM	55 nM	–
COc1ccc(-c2ccc(C(=O)c3c(F)ccc(O)c3F)s2)cc1	–	–	18 nM	38 nM	–
O=C(c1ccc(-c2cc(Cl)c(O)c(Cn3ccnn3)c2)s1)c1c(F)ccc(O)c1F	–	–	18 nM	26 nM	–
COc1c(C)cc(-c2ccc(C(=O)c3c(F)ccc(O)c3F)s2)cc1C	51%	69%	–	–	–
COc1c(Cl)cc(-c2ccc(C(=O)c3c(F)ccc(O)c3F)s2)cc1Cl	27%	8%	0.5 nM	–	Activity (HEK293): Non-Toxic; inhibition at 1 µM (CYP2B6): 4%; concentration (Plasma [5]): 72 nM; Selectivity Index [6]: 11160; Activity (Salmonella typhimurium [7]): Non-Toxic; inhibition at 1 µM (CYP3A4): 36%; concentration (Plasma [8]): 24 nM; inhibition at 1 µM (CYP2D6): 0%; activity at 3.16 µM (PXR (NR1I2)): < 5%; Activity (Salmonella typhimurium [9]): Non-Toxic; inhibition at 1 µM (CYP1A2): 11%; inhibition at 1 µM (CYP2C19): 27%; concentration (Plasma [10]): 42 nM; Activity (Salmonella typhimurium [11]): Non-Toxic; Activity (Salmonella typhimurium [12]): Non-Toxic; inhibition at 1 µM (CYP2C9): 0%
O=C(c1cccc(O)c1)c1ccc(-c2cc(Cl)c(O)c(Cl)c2)s1	–	–	73 nM	540 nM	–
O=C(c1ccc(-c2ccccc2)s1)c1c(F)ccc(O)c1F	–	–	11 nM	35 nM	–
O=C(c1cccc(O)c1)c1ccc(-c2ccc(F)cc2F)s1	–	–	105 to 110 nM	140 nM	–
N#Cc1cc(-c2ccc(C(=O)c3c(F)ccc(O)c3F)s2)ccc1O	44%	6%	–	–	–
COc1c(Cl)cc(-c2ccc(C(=O)c3cccc(O)c3)s2)cc1Cl	8%	0%	6 nM	250 nM	–
O=C(c1ccc(-c2ccncc2)s1)c1c(F)ccc(O)c1F	–	–	150 nM	39 nM	–
O=C(c1ccc(-c2cc(Cl)c(O)c(Cl)c2)s1)c1c(F)ccc(O)c1F	37%	11%	–	–	–
NS(=O)(=O)c1ccc(-c2ccc(C(=O)c3c(F)ccc(O)c3F)s2)cc1	–	–	150 nM	85 nM	–
COc1ccc(-c2ccc(C(=O)c3c(F)ccc(O)c3F)s2)cc1S(=O)(=O)N1CCOCC1	0%	4%	130 nM	180 nM	–
Cc1cc(-c2ccc(C(=O)c3c(F)ccc(O)c3F)s2)cc(C)c1O	17%	22%	–	–	–
O=C(c1ccc(-c2cccnc2)s1)c1c(F)ccc(O)c1F	–	–	27 nM	47 nM	–
COc1c(C)cc(-c2ccc(C(=O)c3c(F)ccc(O)c3F)s2)cc1Cl	–	–	0.3 nM	–	–
